Laboratory results taken from publication PMC5845004, “Novel (p)ppGpp Binding and Metabolizing Proteins of Escherichia coli” (mBio, 2018).

Columns and labels:
MutT [1] = target: T1, MutT (Escherichia coli, UniProt P08337); assay: In vitro cleavage assay (TLC), MutT; assay type: biochemical, E. coli; conditions: 1 µM MutT, 10 nM hot ppGpp, 100 µM competitor, 30°C, up to 1 h
Method: (§1) The purified His6-MutT and His6-NudG proteins were tested for their relative levels of cleavage of ppGpp compared to those seen with their native substrates. For this, a 1 μM concentration of each protein and a 10 nM concentration of [α-^32P]ppGpp were used together with 100 μM concentrations of cold competitors [ppGpp, GTP, ATP, 8-oxo-(d)GTP, 2-hydroxyl-(d)ATP] or 50 mM EDTA in buffer B. The samples were incubated at 30°C for 10 min and for 1 h before the reactions were stopped by adding 50 mM EDTA. The cleavage products were resolved by TLC as described above. The purified His6-NadR and His6-TrmE proteins were tested for their cleavage of both GTP and ppGpp. For cleavage of GTP, 10 μM concentrations of His6-MBP, His6-TrmE, and 20 μM His6-NadR proteins were used with 2 nM [α-^32P]GTP and 100 μM cold GTP in buffer B. For cleavage of ppGpp, 10 μM concentrations of His6-TrmE, His6-MBP, and His6-NadR proteins were used with 10 nM [α-^32P]ppGpp in buffer B. Of note, for His6-TrmE, another reaction was also performed in buffer B supplemented with 100 mM KCl. The reactions were performed at RT for 10 min and were stopped by adding 17% formic acid. The cleavage products were resolved by TLC as described above.
(§2) A 20 μM concentration of each of purified proteins MutT, NudG, NadR, TrmE, and MBP (as a negative control) was incubated with 100 μM ppGpp in buffer B (containing 40 mM Tris [pH 7.5], 100 mM NaCl, and 10 mM MgCl2) for 20 min at room temperature. Samples were snap-frozen on dry ice and analyzed with UPLC-MS afterward. All samples and buffers were stored at −80°C, thawed on ice, and kept at 4°C during analysis. For the analysis, a UPLC-quadrupole time of flight (UPLC-qTOF) method (Waters) was used. Analysis conditions were as follows: column, zic-HILIC (Merck Millipore) (150 by 2.1 mm, […], gradient elution, flow rate set to 0.3 ml/min); mobile phase A, 10 mM ammonium acetate (pH 5); mobile phase B, 90% acetonitrile with 10 mM ammonium acetate (pH 5). The gradient was set up as follows: min 0 to 2, 80% B; min 2 to 16, 80% B to 50% B; hold until min 20; injection volume, 4 µl. The detection conditions were as follows: photodiode array detector (PDA), […] (evaluated at 260 nm); MS, ionization; electrospray ionization (ESI+), scan, 200 to 800 m/z with lock mass correction. Analytes were identified by their accurate mass and retention time data for a known standard dissolved in used buffer (for the chemicals of the same nominal masses). These standards were either synthesized and their structures confirmed by nuclear magnetic resonance (NMR) (for ppGp, pGpp, and pGp) or purchased (ppGpp was purchased from Jena Biocsience and GTP from Sigma-Aldrich).

MutT [2] = target: T1, MutT; conditions: whole-cell lysate, 2 nM hot (p)ppGpp, 100 µM cold competitor
Method: DRaCALA screening was performed essentially as described before ([39]) with minor modifications. Briefly, ASKA collection strains were inoculated into 1.5 ml LB broth with 25 μg/ml chloramphenicol in deep 96-well plates (Greiner) and grown over night at 30°C. IPTG (1 mM) was added the next morning to induce protein expression at 30°C for 6 h. Bacterial cells were collected and frozen at −80°C. To lyse cells, 150 μl buffer B with 2 mM phenylmethylsulfonyl fluoride (PMSF), 40 μg/ml DNase 1, and 0.5 mg/ml lysozyme was used to resuspend cell pellets and then subjected to three freeze-thaw cycles before Benzonase (Sigma) (2.5 U/well) was added to reduce lysate viscosity. A 20-μl volume of lysate was transferred into a 96-well V-bottom plate (Sterilin), incubated at 37°C for 15 min, and placed on ice. […] Membranes were dried for 10 min at RT, and binding signals were exposed to a BAS IP screen (GE Healthcare) and detected by the use of a Typhoon FLA-7000 PhosphorImager.
For competition assays, purified proteins at the specified concentrations were incubated with 2 nM [α-^32P]ppGpp or [α-^32P]pppGpp in the presence of 100 μM competitor nucleotides in binding buffer B. The reaction mixtures were incubated for 5 min at RT, 2 µl was spotted onto nitrocellulose membranes, and the values corresponding to the bound fractions were determined.

NudG [3] = target: T2, NudG (Escherichia coli, UniProt P77788); assay: DRaCALA competition assay, lysate with overproduced NudG; assay type: binding, E. coli; conditions: whole-cell lysate, 2 nM hot (p)ppGpp, 100 µM cold competitor
T2 construct: expressed in transfected cells; host or cells: E. coli ASKA collection strain, IPTG-induced, whole-cell lysate
T2 sequence (P77788 whole entry): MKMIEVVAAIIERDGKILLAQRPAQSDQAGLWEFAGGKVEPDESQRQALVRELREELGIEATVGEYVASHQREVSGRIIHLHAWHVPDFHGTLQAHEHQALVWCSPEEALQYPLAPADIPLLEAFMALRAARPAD
Method: (§3) Bacterial cells were collected and frozen at −80°C.

NudG [4] = target: T2, NudG; assay: In vitro cleavage assay (TLC), NudG; assay type: biochemical, E. coli; conditions: 1 µM NudG, 10 nM hot ppGpp, 100 µM competitor, 30°C
Method: as §1, §2

Der = Der (Escherichia coli, UniProt P0A6P5); assay: DRaCALA Kd determination, purified Der; assay type: binding, E. coli; conditions: 2 nM 32P-labeled ligand, read-out: apparent Kd, Der
Der, sequence (P0A6P5 whole entry): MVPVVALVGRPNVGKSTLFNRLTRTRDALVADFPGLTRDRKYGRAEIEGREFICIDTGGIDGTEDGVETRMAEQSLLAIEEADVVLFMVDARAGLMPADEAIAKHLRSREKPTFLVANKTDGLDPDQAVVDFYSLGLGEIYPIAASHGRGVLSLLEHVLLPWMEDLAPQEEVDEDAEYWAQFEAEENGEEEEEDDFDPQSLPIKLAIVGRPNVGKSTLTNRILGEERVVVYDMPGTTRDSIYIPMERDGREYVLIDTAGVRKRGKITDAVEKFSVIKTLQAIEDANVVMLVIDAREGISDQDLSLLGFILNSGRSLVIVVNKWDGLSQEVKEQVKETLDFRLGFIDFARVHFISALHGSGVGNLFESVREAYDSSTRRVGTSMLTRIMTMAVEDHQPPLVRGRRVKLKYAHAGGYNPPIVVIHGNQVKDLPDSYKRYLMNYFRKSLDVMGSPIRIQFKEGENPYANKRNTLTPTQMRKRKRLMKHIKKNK
Method: (§4) For Kd measurements by DRaCALA, 2-fold serial dilutions from the highest possible concentrations of each purified protein were prepared in binding buffer B, and approximately 2 nM concentrations of α-^32P-labeled ppGpp, pppGpp, GTP, and GDP were added. The mixtures were incubated for 5 min at RT before spotting of 2 µl of the reaction mixtures onto nitrocellulose membranes. […] For competition assays, purified proteins at the specified concentrations were incubated with 2 nM [α-^32P]ppGpp or [α-^32P]pppGpp in the presence of 100 μM competitor nucleotides in binding buffer B. The reaction mixtures were incubated for 5 min at RT, 2 µl was spotted onto nitrocellulose membranes, and the values corresponding to the bound fractions were determined. EDTA was added at excess concentrations as specified for each case.

UshA = target: T3, UshA (Escherichia coli, UniProt P07024); assay: DRaCALA competition assay, lysate with overexpressed UshA; assay type: binding; conditions: cell lysate, 2 nM hot (p)ppGpp, 100 µM cold competitor
T3 sequence (P07024 26-550): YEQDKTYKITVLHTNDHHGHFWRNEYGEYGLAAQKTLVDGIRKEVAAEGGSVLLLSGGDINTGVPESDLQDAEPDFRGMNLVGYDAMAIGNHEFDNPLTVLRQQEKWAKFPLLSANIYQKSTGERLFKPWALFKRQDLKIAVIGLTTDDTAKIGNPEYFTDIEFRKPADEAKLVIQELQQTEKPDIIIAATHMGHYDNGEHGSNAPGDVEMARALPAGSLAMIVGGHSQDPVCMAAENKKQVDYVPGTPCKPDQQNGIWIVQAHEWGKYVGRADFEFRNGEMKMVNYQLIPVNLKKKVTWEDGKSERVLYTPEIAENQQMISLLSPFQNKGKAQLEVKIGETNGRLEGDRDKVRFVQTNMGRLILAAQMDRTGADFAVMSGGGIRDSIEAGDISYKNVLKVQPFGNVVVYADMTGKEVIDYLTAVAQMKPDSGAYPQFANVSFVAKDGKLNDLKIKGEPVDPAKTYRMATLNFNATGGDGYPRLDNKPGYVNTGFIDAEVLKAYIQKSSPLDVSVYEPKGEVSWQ
Method: as §3

YgdH [5] = target: T4, YgdH (Escherichia coli, UniProt P0ADR8); assay: DRaCALA competition assay, YgdH; assay type: binding, E. coli; conditions: 50 µM YgdH, 100 µM cold competitor, without or with 1.5 mM magnesium
Method: as §4

Hpt = Hpt (Escherichia coli, UniProt P0A9M2); assay: DRaCALA competition assay, Hpt; assay type: binding, E. coli; conditions: 20 µM Hpt, 2 nM hot ppGpp, 100 µM cold competitor
Hpt, sequence (P0A9M2 whole entry): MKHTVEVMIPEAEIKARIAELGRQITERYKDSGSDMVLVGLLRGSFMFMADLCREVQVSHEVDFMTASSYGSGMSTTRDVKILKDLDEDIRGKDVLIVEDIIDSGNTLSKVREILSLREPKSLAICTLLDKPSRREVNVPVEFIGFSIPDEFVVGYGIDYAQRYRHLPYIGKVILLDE
Method: For Kd measurements by DRaCALA, 2-fold serial dilutions from the highest possible concentrations of each purified protein were prepared in binding buffer B, and approximately 2 nM concentrations of α-^32P-labeled ppGpp, pppGpp, GTP, and GDP were added. The mixtures were incubated for 5 min at RT before spotting of 2 µl of the reaction mixtures onto nitrocellulose membranes. The fractions of bound ligand and the apparent Kd values were calculated as previously described ([37]). For competition assays, purified proteins at the specified concentrations were incubated with 2 nM [α-^32P]ppGpp or [α-^32P]pppGpp in the presence of 100 μM competitor nucleotides in binding buffer B. The reaction mixtures were incubated for 5 min at RT, 2 µl was spotted onto nitrocellulose membranes, and the values corresponding to the bound fractions were determined. EDTA was added at excess concentrations as specified for each case.

YgdH [6] = target: T4, YgdH; assay: DRaCALA binding and Kd determination, purified YgdH; design: species or system E. coli; conditions: DRaCALA, in the presence of EDTA (without Mg2+); read-out: Kd, YgdH + EDTA (converted)
Method: as §4

RF3 (PrfC) = RF3 (PrfC) (Escherichia coli, UniProt P0A7I4); assay: DRaCALA Kd determination, purified RF3; assay type: binding, E. coli; conditions: 2 nM 32P-labeled ligand, read-out: apparent Kd, RF3 (PrfC)
RF3 (PrfC), sequence (P0A7I4 whole entry): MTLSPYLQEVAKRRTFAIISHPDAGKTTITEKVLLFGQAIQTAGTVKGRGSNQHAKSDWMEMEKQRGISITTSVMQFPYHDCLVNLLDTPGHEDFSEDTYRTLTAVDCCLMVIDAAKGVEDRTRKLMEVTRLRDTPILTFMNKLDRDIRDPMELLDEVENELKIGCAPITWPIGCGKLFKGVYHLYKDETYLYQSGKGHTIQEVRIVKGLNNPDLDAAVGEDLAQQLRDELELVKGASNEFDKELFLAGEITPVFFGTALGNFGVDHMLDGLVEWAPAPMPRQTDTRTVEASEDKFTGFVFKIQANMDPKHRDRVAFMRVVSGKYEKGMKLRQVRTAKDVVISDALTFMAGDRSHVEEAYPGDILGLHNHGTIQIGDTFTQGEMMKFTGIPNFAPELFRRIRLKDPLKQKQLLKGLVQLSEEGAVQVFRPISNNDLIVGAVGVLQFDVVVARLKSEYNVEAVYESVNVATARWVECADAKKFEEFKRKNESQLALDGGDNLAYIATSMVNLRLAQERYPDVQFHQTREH
Method: (§5) For Kd measurements by DRaCALA, 2-fold serial dilutions from the highest possible concentrations of each purified protein were prepared in binding buffer B, and approximately 2 nM concentrations of α-^32P-labeled ppGpp, pppGpp, GTP, and GDP were added. The mixtures were incubated for 5 min at RT before spotting of 2 µl of the reaction mixtures onto nitrocellulose membranes. The fractions of bound ligand and the apparent Kd values were calculated as previously described ([37]).

SaDer = SaDer (Staphylococcus aureus, UniProt A6QH24); assay: DRaCALA Kd determination, SaDer; assay type: binding, S. aureus
SaDer, sequence (A6QH24 whole entry): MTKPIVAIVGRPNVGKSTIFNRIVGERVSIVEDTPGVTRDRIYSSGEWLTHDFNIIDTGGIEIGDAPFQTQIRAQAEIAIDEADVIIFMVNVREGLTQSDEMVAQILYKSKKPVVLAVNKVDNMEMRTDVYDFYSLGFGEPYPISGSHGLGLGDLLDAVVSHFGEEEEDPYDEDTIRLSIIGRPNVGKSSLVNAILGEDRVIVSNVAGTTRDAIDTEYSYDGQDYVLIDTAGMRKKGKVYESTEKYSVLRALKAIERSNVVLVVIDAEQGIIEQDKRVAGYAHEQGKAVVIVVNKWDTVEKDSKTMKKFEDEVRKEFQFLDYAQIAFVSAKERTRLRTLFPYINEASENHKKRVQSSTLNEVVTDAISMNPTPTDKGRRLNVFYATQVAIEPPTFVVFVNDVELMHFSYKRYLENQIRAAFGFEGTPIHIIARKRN
Method: as §5

HypB = HypB (Escherichia coli, UniProt P0AAN3); assay: DRaCALA Kd determination, purified HypB; assay type: binding, E. coli; conditions: 2 nM 32P-labeled ligand, read-out: apparent Kd, HypB
HypB, sequence (P0AAN3 whole entry): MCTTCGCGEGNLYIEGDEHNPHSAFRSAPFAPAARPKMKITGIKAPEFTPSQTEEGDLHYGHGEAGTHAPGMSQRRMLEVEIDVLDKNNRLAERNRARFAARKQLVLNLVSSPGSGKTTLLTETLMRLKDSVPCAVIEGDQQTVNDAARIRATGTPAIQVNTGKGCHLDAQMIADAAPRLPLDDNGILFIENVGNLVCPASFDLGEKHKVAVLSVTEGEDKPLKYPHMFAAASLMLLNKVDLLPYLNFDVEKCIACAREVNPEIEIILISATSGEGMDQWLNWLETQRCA
Method: as §4

TrmE [7] = target: T5, TrmE (Escherichia coli, UniProt P25522); assay: DRaCALA Kd determination, purified TrmE; assay type: binding, E. coli; conditions: in the presence of magnesium, read-out: apparent Kd, TrmE
T5 sequence (P25522 whole entry): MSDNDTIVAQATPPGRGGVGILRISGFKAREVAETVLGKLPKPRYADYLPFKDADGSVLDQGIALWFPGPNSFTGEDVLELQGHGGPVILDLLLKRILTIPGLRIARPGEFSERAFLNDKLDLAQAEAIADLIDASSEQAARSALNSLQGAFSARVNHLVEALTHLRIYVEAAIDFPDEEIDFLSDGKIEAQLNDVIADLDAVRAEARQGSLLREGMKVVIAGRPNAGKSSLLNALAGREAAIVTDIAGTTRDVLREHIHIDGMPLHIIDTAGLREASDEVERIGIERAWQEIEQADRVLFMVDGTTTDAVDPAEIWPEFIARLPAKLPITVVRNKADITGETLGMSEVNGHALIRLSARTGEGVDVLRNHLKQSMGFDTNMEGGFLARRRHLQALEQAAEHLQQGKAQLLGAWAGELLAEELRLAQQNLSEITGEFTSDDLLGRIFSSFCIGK
Method: as §4

TrmE [8] = target: T5, TrmE; assay: In vitro cleavage assay (TLC), TrmE; assay type: biochemical, E. coli; conditions: 10 µM TrmE, buffer B, with 100 mM potassium where stated, 10 min
Method: as §1
A 20 μM concentration of each of purified proteins MutT, NudG, NadR, TrmE, and MBP (as a negative control) was incubated with 100 μM ppGpp in buffer B (containing 40 mM Tris [pH 7.5], 100 mM NaCl, and 10 mM MgCl2) for 20 min at room temperature. Samples were snap-frozen on dry ice and analyzed with UPLC-MS afterward. All samples and buffers were stored at −80°C, thawed on ice, and kept at 4°C during analysis. For the analysis, a UPLC-quadrupole time of flight (UPLC-qTOF) method (Waters) was used. […] The detection conditions were as follows: photodiode array detector (PDA), […] (evaluated at 260 nm); MS, ionization; electrospray ionization (ESI+), scan, 200 to 800 m/z with lock mass correction. […]

[9] = target: the molecule itself; assay: SEC; size exclusion FPLC profile of purified His6-YgdH (53 kDa) compared with protein standards

T1 sequence (P08337 whole entry): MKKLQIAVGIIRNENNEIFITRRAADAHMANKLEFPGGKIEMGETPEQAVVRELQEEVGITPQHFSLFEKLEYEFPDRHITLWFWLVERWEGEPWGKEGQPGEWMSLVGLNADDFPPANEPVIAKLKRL

8-oxo-(d)GTP
inhibition of [α-32P]ppGpp cleavage by MutT (MutT [1]): totally inhibited
competition for MutT-bound (p)ppGpp (MutT [2]): completely outcompete

2-OH-(d)ATP
competition for NudG-bound (p)ppGpp (NudG [3]): comparable to unlabeled ppGpp
inhibition of [α-32P]ppGpp cleavage by NudG (NudG [4]): slightly better than ppGpp

Nc1nc2c(ncn2[C@@H]2O[C@H](COP(=O)(O)OP(=O)(O)O)[C@@H](O)[C@H]2O)c(=O)[nH]1 [GDP]
Kd (Der): 1.3 ± 0.1 µM
competition for NudG-bound (p)ppGpp (NudG [3]): but not the structurally very similar GTP and GDP
competition for UshA-bound (p)ppGpp (UshA): but not the structurally very similar GTP and GDP

Nc1ncnc2c1ncn2[C@@H]1O[C@H](COP(=O)(O)OP(=O)(O)OP(=O)(O)O)[C@@H](O)[C@H]1O [ATP]
competition for NudG-bound (p)ppGpp (NudG [3]): did not compete

Nc1nc2c(ncn2[C@@H]2O[C@H](COP(=O)(O)O)[C@@H](O)[C@H]2O)c(=O)[nH]1 [GMP]
competition for [α-32P]ppGpp binding to YgdH by YgdH substrates (YgdH [5]): none of them could outcompete ppGpp

O=P(O)(O)OC[C@H]1OC(OP(=O)(O)OP(=O)(O)O)[C@H](O)[C@@H]1O (stereo partly shown) [PRPP, phosphoribosyl pyrophosphate]
competition for bound [α-32P]ppGpp on Hpt (Hpt): partially outcompete

Nc1ncnc2c1ncn2[C@@H]1O[C@H](COP(=O)(O)O)[C@@H](O)[C@H]1O [AMP]
competition for [α-32P]ppGpp binding to YgdH by YgdH substrates (YgdH [5]): none of them could outcompete ppGpp

Nc1nc2c(ncn2[C@@H]2O[C@H](COP(=O)(O)OP(=O)(O)OP(=O)(O)O)[C@@H](O)[C@H]2O)c(=O)[nH]1 [GTP]
Kd (YgdH [6]): 21.4 ± 11.5 µM
Kd (Der): 13.7 ± 7.1 µM
Kd (RF3 (PrfC)): 29.3 ± 9.8 µM
Kd (SaDer): 3.5 ± 0.8 µM
Kd (HypB): 9 ± 1.8 µM
Kd (TrmE [7]): 4.6 ± 1.1 µM
competition for NudG-bound (p)ppGpp (NudG [3]): but not the structurally very similar GTP and GDP
competition for UshA-bound (p)ppGpp (UshA): but not the structurally very similar GTP and GDP
inhibition of [α-32P]ppGpp cleavage by MutT (MutT [1]): very limited inhibitory effects
cleavage by TrmE (TrmE [8]): converted almost all GTP

B1: YgdH (ECK2790), His6-YgdH (enzyme, E. coli K-12, UniProt P0ADR8 1-454, looked up)
chain: MITHISPLGSMDMLSQLEVDMLKRTASSDLYQLFRNCSLAVLNSGSLTDNSKELLSRFENFDINVLRRERGVKLELINPPEEAFVDGRIIRALQANLFAVLRDILFVYGQIHNTVRFPNLNLDNSVHITNLVFSILRNARALHVGEAPNMVVCWGGHSINENEYLYARRVGNQLGLRELNICTGCGPGAMEAPMKGAAVGHAQQRYKDSRFIGMTEPSIIAAEPPNPLVNELIIMPDIEKRLEAFVRIAHGIIIFPGGVGTAEELLYLLGILMNPANKDQVLPLILTGPKESADYFRVLDEFVVHTLGENARRHYRIIIDDAAEVARQMKKSMPLVKENRRDTGDAYSFNWSMRIAPDLQMPFEPSHENMANLKLYPDQPVEVLAADLRRAFSGIVAGNVKEVGIRAIEEFGPYKINGDKEIMRRMDDLLQGFVAQHRMKLPGSAYIPCYEICT
notes: YgdH (ECK2790), nucleotide nucleosidase of E. coli K-12, expressed from the ASKA plasmid library (pCA24N vector); The ASKA clone carries the gene of E. coli K-12; The printed size of His6-YgdH is 53 kDa; source: E. coli ASKA collection AG1 strain, purified (Ni-NTA, size exclusion chromatography); not shown: His6, N-terminal, kept
stoichiometry N [9]: 4
